Test results taken from US7078403B1, “Antiviral agents” (Biota Scientific Management Pty Ltd., priority 1999, dated 2006).

test system: HRV type 1A; test: Inhibition of viral cytopathic effect (CPE), visual scoring or neutral red, HRV type 1A in MRC-5 cells; assay type: cell-based, human rhinovirus; conditions: HRV type 1A in MRC-5 cells, CPE inhibition

Compound	Activity on Rhinovirus Type 1A EC50 [µg/mL]
CON=Cc1ccc(OC)c(OCCC2CCN(c3ccc(Cl)nn3)CC2)c1 [Compound 17]	0.00612
CCON=C(C)c1ccc(OCCC2CCN(c3ccc(Cl)nn3)CC2)cc1 [Compound 3]	0.005
N#CCON=Cc1ccc(OCCC2CCN(c3ccc(Cl)nn3)CC2)cc1 [Compound 14]	<0.0032
CCON=Cc1ccc(OCCC2CCN(c3ccc(OCC(F)(F)F)nn3)CC2)cc1 [Compound 21]	>1
CCON=Cc1ccc(OCC2CCN(c3ccc(Cl)nn3)CC2)cc1 [Compound 31]	0.017
C=CCON=Cc1cc(O)cc(OCCC2CCN(c3ccc(Cl)nn3)CC2)c1 [Compound 40]	0.583
CCON=Cc1ccc(OCCN2CCN(c3ccc(Cl)nn3)CC2)cc1 [Compound 27]	0.017
CON=C(C)c1ccc(OCCC2CCN(c3ccc(C)nn3)CC2)cc1 [Compound 9]	<0.0032
CON=C(C)c1ccc(OCCC2CCN(c3ccc(Cl)nn3)CC2)c(OC)c1 [Compound 19]	<0.0032
CCON=Cc1cc(C)c(OCCC2CCN(c3ccc(Cl)nn3)CC2)c(C)c1 [Compound 45]	0.029
Clc1ccc(N2CCC(CCOc3ccc(C=NOCc4ccccc4)cc3)CC2)nn1 [Compound 15]	>1.0
CCON=Cc1ccc(OCCC2CCN(c3ccc(Cl)nn3)CC2)c([N+](=O)[O-])c1 [Compound 36]	0.009
CCOCCOCCON=Cc1ccc(OCCC2CCN(c3ccc(Cl)nn3)CC2)cc1 [Compound 20]	3.28
CCC(=NOC)c1ccc(OCCC2CCN(c3ccc(Cl)nn3)CC2)cc1 [Compound 10]	0.0142
C=CCON=Cc1cc(C)c(OCCCc2cc(C)no2)c(C)c1 [Compound 23]	<0.16
CCON=C(C)c1ccc(OCCC2CCN(c3ccc(C)nn3)CC2)cc1 [Compound 4]	0.39
CCON=Cc1ccc(OCCC2CCN(c3ccc(Cl)nn3)CC2)cc1 [Compound 57]	0.001
CCON=Cc1ccc(OCCC2CCN(c3ccc(OC)nn3)CC2)cc1 [Compound 26]	0.077
CCON=C(C)c1cc(OC)c(OCCC2CCN(c3ccc(Cl)nn3)CC2)c(OC)c1 [Compound 6]	0.06

same assay, conditions: selectivity index = CC50 or MTC divided by EC50; HRV type 1A, MRC-5 cells

Compound	Activity on Rhinovirus Type 1A SI
CON=Cc1ccc(OC)c(OCCC2CCN(c3ccc(Cl)nn3)CC2)c1 [Compound 17]	>163.2
CCON=C(C)c1ccc(OCCC2CCN(c3ccc(Cl)nn3)CC2)cc1 [Compound 3]	1841
N#CCON=Cc1ccc(OCCC2CCN(c3ccc(Cl)nn3)CC2)cc1 [Compound 14]	>312
CCON=Cc1ccc(OCC2CCN(c3ccc(Cl)nn3)CC2)cc1 [Compound 31]	>59.6
C=CCON=Cc1cc(O)cc(OCCC2CCN(c3ccc(Cl)nn3)CC2)c1 [Compound 40]	>1.72
CCON=Cc1ccc(OCCN2CCN(c3ccc(Cl)nn3)CC2)cc1 [Compound 27]	>59.6
CON=C(C)c1ccc(OCCC2CCN(c3ccc(C)nn3)CC2)cc1 [Compound 9]	>312
CON=C(C)c1ccc(OCCC2CCN(c3ccc(Cl)nn3)CC2)c(OC)c1 [Compound 19]	>312
CCON=Cc1cc(C)c(OCCC2CCN(c3ccc(Cl)nn3)CC2)c(C)c1 [Compound 45]	>34.0
CCON=Cc1ccc(OCCC2CCN(c3ccc(Cl)nn3)CC2)c([N+](=O)[O-])c1 [Compound 36]	99.4
CCOCCOCCON=Cc1ccc(OCCC2CCN(c3ccc(Cl)nn3)CC2)cc1 [Compound 20]	>15.24
CCC(=NOC)c1ccc(OCCC2CCN(c3ccc(Cl)nn3)CC2)cc1 [Compound 10]	>70.54
C=CCON=Cc1cc(C)c(OCCCc2cc(C)no2)c(C)c1 [Compound 23]	>320
CCON=C(C)c1ccc(OCCC2CCN(c3ccc(C)nn3)CC2)cc1 [Compound 4]	25.55
CCON=Cc1ccc(OCCC2CCN(c3ccc(Cl)nn3)CC2)cc1 [Compound 57]	>56.3
CCON=Cc1ccc(OCCC2CCN(c3ccc(OC)nn3)CC2)cc1 [Compound 26]	>13.0
CCON=C(C)c1cc(OC)c(OCCC2CCN(c3ccc(Cl)nn3)CC2)c(OC)c1 [Compound 6]	>167.09

test system: human embryo lung (MRC-5) cells; test: Cytotoxicity (CC50 or MTC) in uninfected MRC-5 cells; conditions: unit not given

Compound	Activity on Rhinovirus Type 1A MTC
CON=Cc1ccc(OC)c(OCCC2CCN(c3ccc(Cl)nn3)CC2)c1 [Compound 17]	>1
CCON=C(C)c1ccc(OCCC2CCN(c3ccc(Cl)nn3)CC2)cc1 [Compound 3]	>10.0
N#CCON=Cc1ccc(OCCC2CCN(c3ccc(Cl)nn3)CC2)cc1 [Compound 14]	>1
CCON=Cc1ccc(OCCC2CCN(c3ccc(OCC(F)(F)F)nn3)CC2)cc1 [Compound 21]	>1
CCON=Cc1ccc(OCC2CCN(c3ccc(Cl)nn3)CC2)cc1 [Compound 31]	>1
C=CCON=Cc1cc(O)cc(OCCC2CCN(c3ccc(Cl)nn3)CC2)c1 [Compound 40]	>1
CCON=Cc1ccc(OCCN2CCN(c3ccc(Cl)nn3)CC2)cc1 [Compound 27]	>1
CON=C(C)c1ccc(OCCC2CCN(c3ccc(C)nn3)CC2)cc1 [Compound 9]	>1
CON=C(C)c1ccc(OCCC2CCN(c3ccc(Cl)nn3)CC2)c(OC)c1 [Compound 19]	>1
CCON=Cc1cc(C)c(OCCC2CCN(c3ccc(Cl)nn3)CC2)c(C)c1 [Compound 45]	>1
Clc1ccc(N2CCC(CCOc3ccc(C=NOCc4ccccc4)cc3)CC2)nn1 [Compound 15]	>1.0
CCON=Cc1ccc(OCCC2CCN(c3ccc(Cl)nn3)CC2)c([N+](=O)[O-])c1 [Compound 36]	0.89
CCOCCOCCON=Cc1ccc(OCCC2CCN(c3ccc(Cl)nn3)CC2)cc1 [Compound 20]	>50.00
CCC(=NOC)c1ccc(OCCC2CCN(c3ccc(Cl)nn3)CC2)cc1 [Compound 10]	>1
C=CCON=Cc1cc(C)c(OCCCc2cc(C)no2)c(C)c1 [Compound 23]	>50
CCON=C(C)c1ccc(OCCC2CCN(c3ccc(C)nn3)CC2)cc1 [Compound 4]	10.00
CCON=Cc1ccc(OCCC2CCN(c3ccc(Cl)nn3)CC2)cc1 [Compound 57]	>0.1
CCON=Cc1ccc(OCCC2CCN(c3ccc(OC)nn3)CC2)cc1 [Compound 26]	>1
CCON=C(C)c1cc(OC)c(OCCC2CCN(c3ccc(Cl)nn3)CC2)c(OC)c1 [Compound 6]	>10.00

test system: HRV type 2; test: Inhibition of viral cytopathic effect (CPE), visual scoring or neutral red, HRV type 2 in KB cells; assay type: cell-based, human rhinovirus; conditions: HRV type 2 in KB cells, CPE inhibition

Compound	Activity on Rhinovirus Type 2 EC50 [µg/mL]
CON=Cc1ccc(OC)c(OCCC2CCN(c3ccc(Cl)nn3)CC2)c1 [Compound 17]	>1
CCON=C(C)c1ccc(OCCC2CCN(c3ccc(Cl)nn3)CC2)cc1 [Compound 3]	0.01
N#CCON=Cc1ccc(OCCC2CCN(c3ccc(Cl)nn3)CC2)cc1 [Compound 14]	0.046
CCON=Cc1ccc(OCCC2CCN(c3ccc(OCC(F)(F)F)nn3)CC2)cc1 [Compound 21]	0.3
CCON=Cc1ccc(OCC2CCN(c3ccc(Cl)nn3)CC2)cc1 [Compound 31]	0.003
C=CCON=Cc1cc(O)cc(OCCC2CCN(c3ccc(Cl)nn3)CC2)c1 [Compound 40]	0.4
CCON=Cc1ccc(OCCN2CCN(c3ccc(Cl)nn3)CC2)cc1 [Compound 27]	0.1
CON=C(C)c1ccc(OCCC2CCN(c3ccc(C)nn3)CC2)cc1 [Compound 9]	0.08
CON=C(C)c1ccc(OCCC2CCN(c3ccc(Cl)nn3)CC2)c(OC)c1 [Compound 19]	0.019
CCON=Cc1cc(C)c(OCCC2CCN(c3ccc(Cl)nn3)CC2)c(C)c1 [Compound 45]	0.03
Clc1ccc(N2CCC(CCOc3ccc(C=NOCc4ccccc4)cc3)CC2)nn1 [Compound 15]	0.9
CCON=Cc1ccc(OCCC2CCN(c3ccc(Cl)nn3)CC2)c([N+](=O)[O-])c1 [Compound 36]	0.03
CCOCCOCCON=Cc1ccc(OCCC2CCN(c3ccc(Cl)nn3)CC2)cc1 [Compound 20]	3
CCC(=NOC)c1ccc(OCCC2CCN(c3ccc(Cl)nn3)CC2)cc1 [Compound 10]	0.4
C=CCON=Cc1cc(C)c(OCCCc2cc(C)no2)c(C)c1 [Compound 23]	<0.05
CCON=C(C)c1ccc(OCCC2CCN(c3ccc(C)nn3)CC2)cc1 [Compound 4]	0.5
CCON=Cc1ccc(OCCC2CCN(c3ccc(Cl)nn3)CC2)cc1 [Compound 57]	0.00025
CCON=Cc1ccc(OCCC2CCN(c3ccc(OC)nn3)CC2)cc1 [Compound 26]	0.16
CCON=C(C)c1cc(OC)c(OCCC2CCN(c3ccc(Cl)nn3)CC2)c(OC)c1 [Compound 6]	0.1

same assay, conditions: selectivity index = CC50 or MTC divided by EC50; HRV type 2, KB cells

Compound	Activity on Rhinovirus Type 2 SI
CCON=C(C)c1ccc(OCCC2CCN(c3ccc(Cl)nn3)CC2)cc1 [Compound 3]	>100
N#CCON=Cc1ccc(OCCC2CCN(c3ccc(Cl)nn3)CC2)cc1 [Compound 14]	13
CCON=Cc1ccc(OCCC2CCN(c3ccc(OCC(F)(F)F)nn3)CC2)cc1 [Compound 21]	>3
CCON=Cc1ccc(OCC2CCN(c3ccc(Cl)nn3)CC2)cc1 [Compound 31]	>333
C=CCON=Cc1cc(O)cc(OCCC2CCN(c3ccc(Cl)nn3)CC2)c1 [Compound 40]	>3
CCON=Cc1ccc(OCCN2CCN(c3ccc(Cl)nn3)CC2)cc1 [Compound 27]	>10
CON=C(C)c1ccc(OCCC2CCN(c3ccc(C)nn3)CC2)cc1 [Compound 9]	>13
CON=C(C)c1ccc(OCCC2CCN(c3ccc(Cl)nn3)CC2)c(OC)c1 [Compound 19]	>53
CCON=Cc1cc(C)c(OCCC2CCN(c3ccc(Cl)nn3)CC2)c(C)c1 [Compound 45]	>32
Clc1ccc(N2CCC(CCOc3ccc(C=NOCc4ccccc4)cc3)CC2)nn1 [Compound 15]	<1
CCON=Cc1ccc(OCCC2CCN(c3ccc(Cl)nn3)CC2)c([N+](=O)[O-])c1 [Compound 36]	>33
CCOCCOCCON=Cc1ccc(OCCC2CCN(c3ccc(Cl)nn3)CC2)cc1 [Compound 20]	1
CCC(=NOC)c1ccc(OCCC2CCN(c3ccc(Cl)nn3)CC2)cc1 [Compound 10]	>3
C=CCON=Cc1cc(C)c(OCCCc2cc(C)no2)c(C)c1 [Compound 23]	>340
CCON=C(C)c1ccc(OCCC2CCN(c3ccc(C)nn3)CC2)cc1 [Compound 4]	>2
CCON=Cc1ccc(OCCC2CCN(c3ccc(Cl)nn3)CC2)cc1 [Compound 57]	>400
CCON=Cc1ccc(OCCC2CCN(c3ccc(OC)nn3)CC2)cc1 [Compound 26]	>6
CCON=C(C)c1cc(OC)c(OCCC2CCN(c3ccc(Cl)nn3)CC2)c(OC)c1 [Compound 6]	>500
